Here are results for six compounds from PMC11167338, “Exploring the impact of trifluoromethyl (–CF3) functional group on the anti-cancer activity of isoxazole-based molecules: design, synthesis, biological evaluation and molecular docking analysis” (RSC Advances, 2024).

The structures appear in SMILES notation.

The test system of the first data set is MCF-7. Description: MTT anti-proliferative assay on MCF-7. The class given is cell-based, human. Conditions: Homo sapiens, MCF7, 48 h, MTT, 48 hours treatment, mean ± SD (n = 2). How it is done:
(§1) All synthesized molecules were tested for their anticancer activity using the MTT assay protocol against the murine mammary carcinoma cell line (4T1), the human breast cancer (MCF-7), and the prostatic small cell carcinoma (PC-3). These compounds were then assessed for their IC50 determination at various concentrations. According to this finding, all synthesized compounds have the ability to inhibit the proliferation of a variety of cancer cell lines. […] It is more biased for MCF-7 cells over other cancer cells tested. Further, we contemplated conducting additional research to assess their anti-cancer effectiveness and mechanism (Fig. 3).
(§2) The mouse triple-negative breast cancer cell line (4T1), a human luminal A breast cancer cell line (MCF-7), a human prostate cancer cell line (PC-3), and a normal human embryonic kidney cell line (HEK-293) were procured from the National Center for Cell Science (NCCS, Pune, India). Dulbecco's Modified Eagle Medium (DMEM) (Himedia Laboratories Pvt Ltd, Mumbai, India) was used to cultivate MCF-7, 4T1, PC-3, and HEK-293 cells. All the mentioned cell lines were cultured in Dulbecco's Modified Eagle Medium (DMEM) supplemented with 10% heat-inactivated fetal bovine serum (Himedia Laboratories Pvt Ltd, Mumbai, India) and 1% antibiotic (Pen strep: A001), Himedia Laboratories Pvt Ltd, Mumbai, India. Cells were grown in a humidified environment with 5% CO2 at 37 °C. The experiment was performed using the yellow dye MTT [3-(4,5-dimethylthiazol-2-yl)-2, 5-diphenyltetrazolium bromide].
(§3) The MTT assay protocol was used to determine the IC50 values of the final compounds against different types of cancer cell lines and their selectivity over normal human cell lines. Dilutions of various concentrations were made from the compounds' DMSO stock solutions in the appropriate media. With a control solution of less than 1% DMSO in the appropriate media, dilutions from 200 μM to 0.781 μM concentrations were prepared using the serial dilution method. Cells were subcultured in their respective complete media according to the ATCC protocol before being seeded on a sterile 96-well plate with around 100 μL per well and a cell density of about 1 × 10^4 cells per well and incubated overnight. The medium was aspirated the following day, and adherent cells were treated with the respective concentrations 200 μM to 0.781 μM. The cells were then cultured for 48 hours in presence of compounds in the growth medium. The medium was aspirated post-treatment, and 100 μL of a 5 mg mL^−1 MTT solution in phenol red-free media was added. This mixture was then incubated for around 3 hours to check for the production of formazan crystals. The MTT solution was withdrawn, and 150 μL of DMSO was added to the wells to dissolve the generated crystals. The absorbance was measured at 570 nm and 650 nm. The percent cell viability was calculated for the IC50 values using GraphPad Prism™ version 8.0.1, and the results were shown as a dose–response curve.
On the technique in general: Tetrazolium dyes change colour on reduction, which living cells bring about.
The IC50 is the point on the concentration scale where inhibition reaches its midpoint. `Nc1ccccc1NC(=O)c1cnccn1` [BG-45, reference compound] returned a half-inhibitory concentration (IC50) of 43.6 µM.

The compound `FC(F)(F)c1c(-c2ccccc2)noc1-c1ccccc1` [Compound 2a] returned an IC50 of 11.3 µM.

`FC(F)(F)c1c(-c2cccs2)noc1-c1ccccc1` [Compound 2b] showed an IC50 of 9.76 µM.

`FC(F)(F)c1c(-c2ccccc2)noc1-c1cccs1` [Compound 2c] returned an IC50 of 8.19 ± 0.12 µM.

Compound `FC(F)(F)c1c(-c2cccc3ccccc23)noc1-c1cccs1` [Compound 2d] gave a half-maximal inhibitory concentration (IC50) of 10.6 ± 0.19 µM.

For `FC(F)(F)c1c(-c2cccs2)noc1-c1ccco1` [Compound 2e], the concentration for half-maximal inhibition (IC50) worked out at 5.48 µM.

Staying with this data set, now noted: MTT, 48 hours treatment, mean ± SD (n = 2).
As to `Nc1ccccc1NC(=O)c1cnccn1` [BG-45, reference compound], the half-inhibitory concentration (IC50) came out at 43.55 ± 0.18 µM.

With `FC(F)(F)c1c(-c2ccccc2)noc1-c1ccccc1` [Compound 2a], the IC50 was found to be 11.3 ± 0.13 µM.

In the case of `FC(F)(F)c1c(-c2cccs2)noc1-c1ccccc1` [Compound 2b], half-maximal inhibition (IC50) was put at 9.76 ± 0.09 µM.

With `FC(F)(F)c1c(-c2cccs2)noc1-c1ccco1` [Compound 2e], inhibition was half-maximal at 5.48 ± 0.14 µM (IC50).

The test system of the next data set is 4T1. Description: MTT anti-proliferative assay on 4T1. The data set is classed as cell-based, mouse. Conditions: Mus musculus, 4T1; MTT, 48 hours treatment, mean ± SD (n = 2). How it is done:
as §1, §2, §3
Take `Nc1ccccc1NC(=O)c1cnccn1` [BG-45, reference compound]: the concentration for half-maximal inhibition (IC50) was 59.14 ± 0.17 µM.

For `FC(F)(F)c1c(-c2ccccc2)noc1-c1ccccc1` [Compound 2a], the IC50 was 37.83 ± 0.2 µM.

Compound `FC(F)(F)c1c(-c2cccs2)noc1-c1ccccc1` [Compound 2b] displayed a half-maximal inhibitory concentration (IC50) of 35.36 ± 0.19 µM.

`FC(F)(F)c1c(-c2ccccc2)noc1-c1cccs1` [Compound 2c] displayed an IC50 of 28.78 ± 0.19 µM.

`FC(F)(F)c1c(-c2cccc3ccccc23)noc1-c1cccs1` [Compound 2d] returned a concentration for half-maximal inhibition (IC50) of 37.18 ± 0.22 µM. This IC50 and that of the compound before are within 1.5-fold of each other.

As to `FC(F)(F)c1c(-c2cccs2)noc1-c1ccco1` [Compound 2e], half-maximal inhibition (IC50) was put at 23.5 ± 0.21 µM.

The test system of another data set is PC-3. Description: MTT anti-proliferative assay on PC-3. The data set is classed as cell-based, human. Conditions: Homo sapiens, PC-3; MTT, 48 hours treatment, mean ± SD (n = 2). The method, then: as §1, §2, §3
`Nc1ccccc1NC(=O)c1cnccn1` [BG-45, reference compound] gave a half-maximal inhibitory concentration (IC50) of 28.67 ± 0.14 µM.

The compound `FC(F)(F)c1c(-c2ccccc2)noc1-c1ccccc1` [Compound 2a] had an IC50 of 16.14 ± 0.15 µM.

Consider `FC(F)(F)c1c(-c2cccs2)noc1-c1ccccc1` [Compound 2b], for which half-maximal inhibition (IC50) required 13.6 ± 0.17 µM.

As to `FC(F)(F)c1c(-c2ccccc2)noc1-c1cccs1` [Compound 2c], the IC50 turned out to be 11.7 ± 0.16 µM.

Compound `FC(F)(F)c1c(-c2cccc3ccccc23)noc1-c1cccs1` [Compound 2d] came in with an IC50 of 15.59 ± 0.14 µM. This IC50 and that of the compound before are within 1.5-fold of each other.

In turn, `FC(F)(F)c1c(-c2cccs2)noc1-c1ccco1` [Compound 2e] gave a half-maximal inhibitory concentration (IC50) of 11.6 ± 0.14 µM. This IC50 and that of the compound before are within 1.5-fold of each other.

For the next data set, the system named is HEK-293. Description: MTT cytotoxicity on normal HEK-293 cells. Conditions: Homo sapiens, HEK293, normal cell line, 48 hours treatment, mean ± SD (n = 2). The data set is classed as cell-based.
Description: We also investigated their in vitro cytotoxicity against a normal human embryonic kidney (HEK-293) cell line to determine their IC50.
as §2, §3
Consider `Nc1ccccc1NC(=O)c1cnccn1` [BG-45, reference compound], for which it took 144.56 ± 0.14 µM to reach half-maximal inhibition (IC50).

The compound `FC(F)(F)c1c(-c2ccccc2)noc1-c1ccccc1` [Compound 2a] yielded an IC50 of 114.9 ± 0.15 µM.

In turn, `FC(F)(F)c1c(-c2cccs2)noc1-c1ccccc1` [Compound 2b] displayed an IC50 of 103.3 ± 0.17 µM. The IC50 values of the last two compounds are within 1.5-fold of each other.

As to `FC(F)(F)c1c(-c2ccccc2)noc1-c1cccs1` [Compound 2c], half-maximal inhibition (IC50) required 98.76 ± 0.24 µM.

Regarding `FC(F)(F)c1c(-c2cccc3ccccc23)noc1-c1cccs1` [Compound 2d], half-maximal inhibition (IC50) required 111.8 ± 0.17 µM.

The compound `FC(F)(F)c1c(-c2cccs2)noc1-c1ccco1` [Compound 2e] registered an IC50 of 94.55 ± 0.2 µM.

A further data set concerns MCF-7 cells. Kind of data set: Annexin-V/FITC-PI apoptosis assay (flow cytometry). The class given is cell-based, human. Conditions: MCF-7, 48 h, at in vitro IC50. How it is done: Several studies have reported that anticancer drug molecules employ their cytotoxicity induced cell death via apoptotic pathways. […] These findings imply that the programmed cell death mechanism generated by the lead compound 2g causes considerable apoptosis in cancer cells.
In MCF-7 cells, an apoptosis assay was done using a TACs/Annexin V kit from Biolegend, USA. MCF-7 cells were seeded with a density of 5.0 × 10^4 cells per well in a flat-bottomed 12-well plate and allowed overnight for attachment. Following media aspiration, 48 hours of treatment with compound 2g and BG-45 at their in vitro IC50 values in MCF-7 cells were performed in triplicate. The cells were then trypsinized after being rinsed twice with ice-cold PBS. The trypsinized cells were then collected, centrifuged, and the obtained cell pellet was washed with ice-cold PBS before being resuspended in 100 μL of freshly prepared Annexin V reagent, which included 10 μL of 10× binding buffer, 1 μL of FITC, 10 μL of PI, and made up to 100 μL with double distilled water. Following a 30 minutes dark incubation period, these samples were diluted to 500 μL using 400 μL of 1× binding buffer. Following incubation, the samples were examined using flow cytometry (BDAria™ III, BD biosciences).
For orientation: A flow cytometer gives signals particle by particle.
In the case of `Nc1ccccc1NC(=O)c1cnccn1` [BG-45, reference compound], the “total apoptotic percentage (Q2 and Q4)” value was found to be 16.4 ± 1.1%.

In a further data set the test system is MCF-7 cells. Kind of data set: Cell cycle analysis (PI, flow cytometry). The data set is classed as cell-based, human. Conditions: MCF-7, 48 hours, at IC50 concentration. The method, then:
In addition to the apoptosis assay, the cell cycle progression of MCF-7 cells was also investigated using the compound 2g. The cell population at different cell cycle phases was assessed using flow cytometry. […] These findings highlight that the lead compound 2g specifically impacts cell cycle regulation in the early phase compared to control and standard compound-treated cells (Fig. 6).
Flow cytometry was used to study the cell cycle of compound 2g and BG-45 using the BDAria™ III, a BD biosciences equipment, and the data was processed using Flow Jo software. For this objective, 5.0 × 10^4 MCF-7 cells were seeded onto 12 well plates and incubated overnight. The media was aspirated the other day, and the treatment was continued for another 48 hours after adding the required concentrations of compound 2g and BG-45 to the aspirated media. Following the treatment, the sample wells were rinsed with ice-cold PBS, trypsinized, and collected as a cell pellet. After two ice-cold PBS washes, the pellet was fixed with a dropwise addition of 70% ice-cold ethanol, which was then gently vortexed to create a single-cell suspension. Overnight, the fixed cells were stored at −20 °C. The samples were then centrifuged, and the resulting cell pellet was resuspended in 500 μL of the staining solution made from 20% w/v RNase, 2% w/v PI, and roughly 0.1% v/v Triton X 100 solution in PBS. The dissolved samples were examined using flow cytometry in the BDAria™ III, BD Biosciences, after being incubated for 30 min at room temperature in the dark.
For `Nc1ccccc1NC(=O)c1cnccn1` [BG-45, reference compound], the “cell population in G0/G1 phase” value is reported as 63.6%, the “cell population in G2/M phase” value was found to be 24.4% and the “cell population in S phase” value amounted to 14.2%.

A further data set has as its system MCF-7 cells. Kind of data set: Intracellular ROS generation (DCFH-DA). The class given is cell-based, human. Conditions: MCF-7, 48 h, IC50 dose. An excerpt:
This can result from the increased metabolic demands of rapidly dividing cancer cells and mitochondrial dysfunction. Elevated ROS levels can also damage DNA, contributing to genomic instability and the development of genetic mutations that drive cancer progression. Chemotherapy drugs, for example, can generate ROS as a byproduct of their mechanism of action, causing increase DNA damage and cell death in cancer cells. As a result, we investigated whether the compound 2g could cause ROS production within cancer cells.
The generation of reactive oxygen species in MCF-7 cells was investigated using the 2-7-dichlorodihydroflourescein diacetate (DCFH-DA) assay. The non-fluorescent DCFH-DA enters the cells, where cellular esterase cleaves off the acetyl groups to produce DCFH. ROS transform the molecule from DCFH to DCF, which produces green light. […] Following incubation, old medium was removed, and cells were treated with 10 μM DCFH-DA (S0033-Beyotime) in accordance with the recommended technique for 10 min at 37 °C in complete darkness. The intensity of fluorescence was then measured with a Laser Scanning Confocal Microscope (LSCM) DMI8 (Leica Microsystems, Germany) at 63× magnification at 485 nm and 535 nm for excitation and emission wavelengths. […] In the meantime, the increase in fluorescence intensity was determined in comparison to the control. Image J was used to calculate the relative fluorescence intensity (%). One-way ANOVA was used to determine significance, and the graph was created in GraphPad Prism™ version 8.0.1.
For `Nc1ccccc1NC(=O)c1cnccn1` [BG-45, reference compound], the “Fluorescence intensity (DCFH-DA, ImageJ)” value stood at 18.02.

Test system in the next data set: not given
Assay: not given
Conditions: not given
For orientation: melting point means the temperature, or range, at which the solid turns liquid. In turn, `FC(F)(F)c1c(-c2ccccc2)noc1-c1ccccc1` [Compound 2a] yielded a melting point of 60 to 65 °C.

The compound `FC(F)(F)c1c(-c2cccs2)noc1-c1ccccc1` [Compound 2b] showed a melting point of 65 to 69 °C.

Turning to `FC(F)(F)c1c(-c2cccs2)noc1-c1ccco1` [Compound 2e], the melting point is 66 to 70 °C.
